According to patent US10023579B2, “Pyrrolopyrimidine compounds, use as inhibitors of the kinase LRRK2, and methods for preparation thereof” (Southern Research Institute, priority 2015, dated 2018):
“And” between values parts separate entries of the source, which are not always exact repeats. Equal values may be shown once.

Assays:
[1] = target: T1, WT-LRRK2 (recombinant GST-LRRK2 delta970) (Homo sapiens, UniProt Q5S007); assay: LRRK2 kinase assay, wild type (32P radiometric, peptide substrate); assay type: biochemical; details: WT-LRRK2 30 nM, ATP ~92 μM (Km), 30 min at 30° C.
T1 construct: Recombinant GST-LRRK2 (delta970); GST (N); host or cells: baculovirus-infected Sf9 insect cells
Description: (§1) Compounds were assessed for inhibition of LRRK2 inhibition using the following procedure. Recombinant GST-LRRK2 (delta970) purified from baculovirus infected insect cells (SF9), at least 90% pure and either wild-type sequence or bearing the pathogenic G2019S mutation, was combined into a kinase buffer at 30 nM concentration. Kinase buffer consists of 50 mM Tris HCl pH 7.4, 1 mM EDTA, and 50 μM peptide substrate (amino acid sequence […]). Experimental compounds or control (no compound) were added at desired concentrations in DMSO and water, where final concentration of DMSO in kinase reactions was 0.1% for all drug concentrations. […] Reactions were incubated at 1400 RPM at 30° C. for 30 min. and then spotted in triplicate directly onto a slot-blot apparatus fitted with phospho-cellulose paper and allowed to dry. Each slot was then washed with 10 mM phosphoric acid buffer until beta-radiation could not be detected in eluted wash buffer, usually ˜1 mL per slot. Paper within each slot were excised and radiation measured by liquid scintillation.

[2] = target: T2, G2019S-LRRK2 (recombinant GST-LRRK2 delta970) (Homo sapiens, UniProt Q5S007, G2019S); assay: LRRK2 kinase assay, G2019S mutant (32P radiometric, peptide substrate); assay type: biochemical; details: G2019S-LRRK2 30 nM, ATP ~52 μM (Km), 30 min at 30° C.
T2 construct: Recombinant GST-LRRK2 (delta970); GST (N); host or cells: baculovirus-infected Sf9 insect cells
Description: as §1

T2 sequence (Q5S007 970-2527 G2019S limits assumed): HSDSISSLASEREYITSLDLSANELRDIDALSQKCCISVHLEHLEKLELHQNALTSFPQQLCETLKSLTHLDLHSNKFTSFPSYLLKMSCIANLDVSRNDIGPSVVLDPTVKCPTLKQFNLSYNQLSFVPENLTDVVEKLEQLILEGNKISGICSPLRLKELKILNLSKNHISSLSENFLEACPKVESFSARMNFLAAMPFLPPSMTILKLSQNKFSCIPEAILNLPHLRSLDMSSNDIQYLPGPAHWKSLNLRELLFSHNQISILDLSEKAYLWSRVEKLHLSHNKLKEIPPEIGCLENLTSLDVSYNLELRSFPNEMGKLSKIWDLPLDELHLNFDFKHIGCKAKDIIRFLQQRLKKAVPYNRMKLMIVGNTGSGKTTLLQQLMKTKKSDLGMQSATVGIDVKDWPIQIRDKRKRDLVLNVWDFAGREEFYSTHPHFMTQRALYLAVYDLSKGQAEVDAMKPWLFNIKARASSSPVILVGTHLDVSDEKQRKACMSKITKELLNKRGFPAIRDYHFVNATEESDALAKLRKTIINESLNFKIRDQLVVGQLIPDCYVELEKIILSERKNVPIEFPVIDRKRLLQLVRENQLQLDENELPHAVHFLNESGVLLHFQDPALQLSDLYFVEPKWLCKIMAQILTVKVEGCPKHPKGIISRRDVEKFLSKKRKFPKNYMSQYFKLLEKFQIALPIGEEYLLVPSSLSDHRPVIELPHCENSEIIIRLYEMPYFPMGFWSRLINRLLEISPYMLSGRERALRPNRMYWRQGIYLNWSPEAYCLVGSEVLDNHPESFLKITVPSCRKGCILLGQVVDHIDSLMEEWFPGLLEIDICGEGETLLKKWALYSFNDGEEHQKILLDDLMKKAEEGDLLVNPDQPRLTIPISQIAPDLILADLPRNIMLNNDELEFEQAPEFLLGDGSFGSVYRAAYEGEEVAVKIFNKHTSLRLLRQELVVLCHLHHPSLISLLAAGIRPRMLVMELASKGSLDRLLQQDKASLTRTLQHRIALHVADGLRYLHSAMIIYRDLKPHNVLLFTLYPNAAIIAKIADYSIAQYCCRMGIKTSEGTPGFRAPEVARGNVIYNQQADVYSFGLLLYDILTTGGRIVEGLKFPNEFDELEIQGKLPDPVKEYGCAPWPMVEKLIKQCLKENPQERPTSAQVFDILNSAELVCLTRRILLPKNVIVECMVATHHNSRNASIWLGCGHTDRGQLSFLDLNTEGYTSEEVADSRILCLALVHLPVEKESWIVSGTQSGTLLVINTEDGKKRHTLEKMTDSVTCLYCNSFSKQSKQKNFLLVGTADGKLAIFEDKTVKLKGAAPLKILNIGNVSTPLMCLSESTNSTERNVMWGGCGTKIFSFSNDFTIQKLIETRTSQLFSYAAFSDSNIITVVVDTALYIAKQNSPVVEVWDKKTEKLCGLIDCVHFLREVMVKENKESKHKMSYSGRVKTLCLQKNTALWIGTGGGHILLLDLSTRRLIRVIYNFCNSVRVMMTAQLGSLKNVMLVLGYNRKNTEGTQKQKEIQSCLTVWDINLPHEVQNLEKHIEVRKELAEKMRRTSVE
T1 sequence (Q5S007 970-2527 limits assumed): as the sequence (Q5S007 970-2527 G2019S limits assumed) above, with S1050G counted along it

SMILES | IC50 [1] | IC50 [2]
C[C@H](Nc1nc(Nc2cn(C3CCOC3)nn2)nc2[nH]ccc12)C1CC1 (stereo in doubt) [Compound 50, N4-((S)-1-cyclopropylethyl)-N2-(1-((S)-tetrahydrofuran-3-yl)-1H-1,2,3-triazol-4-yl)-7H-pyrrolo[2,3-d]pyrimidine-2,4-diamine] | 0.04 µM | 0.061 µM
Cn1cc(Nc2nc(NC3CCC3)c3cc[nH]c3n2)cn1 [Compound 7, N4-cyclobutyl-N2-(1-methyl-1H-pyrazol-4-yl)-7H-pyrrolo[2,3-d]pyrimidine-2,4-diamine] | 0.008 µM | 0.019 µM
CC(C)n1cc(Nc2nc(NC3CCC3)c3cc[nH]c3n2)cn1 [Compound 8, N4-cyclobutyl-N2-(1-isopropyl-1H-pyrazol-4-yl)-7H-pyrrolo[2,3-d]pyrimidine-2,4-diamine] | 0.005 µM | 0.009 µM
C[C@H](Nc1nc(Nc2cnn(C)c2)nc2[nH]cnc12)C1CC1 [Compound 9, (S)-N6-(1-cyclopropylethyl)-N2-(1-methyl-1H-pyrazol-4-yl)-9H-purine-2,6-diamine] | 0.038 µM | 0.1 µM
Cc1cc(Nc2nc(N[C@@H](C)C3CC3)c3nc[nH]c3n2)n[nH]1 [Compound 10, (S)-N6-(1-cyclopropylethyl)-N2-(5-methyl-1H-pyrazol-3-yl)-9H-purine-2,6-diamine] | 0.019 µM | 0.048 µM
CC(C)n1cc(Nc2nc(N[C@@H](C)C3CC3)c3nc[nH]c3n2)cn1 [Compound 12, (S)-N6-(1-cyclopropylethyl)-N2-(1-isopropyl-1H-pyrazol-4-yl)-9H-purine-2,6-diamine] | 0.01 µM | 0.022 µM
CC(C)n1cc(Nc2nc(NC3CCC3)c3nc[nH]c3n2)cn1 [Compound 13, N6-cyclobutyl-N2-(1-isopropyl-1H-pyrazol-4-yl)-9H-purine-2,6-diamine] | 0.007 µM | 0.015 µM
Cc1c(Nc2nc(N[C@H]3CCc4ccccc43)c3cc[nH]c3n2)cnn1C(C)C(=O)N1CCN(C)CC1 (stereo partly drawn) [Compound 18, 2-(4-((4-(((S)-2,3-dihydro-1H-inden-1-yl)amino)-7H-pyrrolo[2,3-d]pyrimidin-2-yl)amino)-5-methyl-1H-pyrazol-1-yl)-1-(4-methylpiperazin-1-yl)propan-1-one] | 0.037 µM | 0.049 µM
CC(C)n1cc(Nc2nc(N[C@@H](C)c3ccccc3)c3cc[nH]c3n2)cn1 [Compound 22, (S)-N2-(1-isopropyl-1H-pyrazol-4-yl)-N4-(1-phenylethyl)-7H-pyrrolo[2,3-d]pyrimidine-2,4-diamine] | 0.037 µM | 0.056 µM
Cc1c(Nc2nc(N[C@@H](C)c3ccccc3)c3cc[nH]c3n2)cnn1C(C)C [Compound 24, (S)-N2-(1-isopropyl-5-methyl-1H-pyrazol-phenylethyl)-7H-pyrrolo[2,3-d]pyrimidine-2,4-diamine] | 0.055 µM | 0.063 µM
Cc1c(Nc2nc(N[C@@H](C)C3CCCCC3)c3cc[nH]c3n2)cnn1C(C)C [Compound 25, (S)-N4-(1-cyclohexylethyl)-N2-(1-isopropyl-5-methyl-1H-pyrazol-4-yl)-7H-pyrrolo[2,3-d]pyrimidine-2,4-diamine] | 0.042 µM | 0.043 µM
C[C@H](Nc1nc(Nc2cnn(C)c2)nc2[nH]ccc12)C1CC1 [Compound 28, (S)-N4-(1-cyclopropylethyl)-N2-(1-methyl-1H-pyrazol-4-yl)-7H-pyrrolo[2,3-d]pyrimidine-2,4-diamine] | 0.02 µM | 0.03 µM
CCn1cc(Nc2nc(N[C@@H](C)C3CC3)c3cc[nH]c3n2)cn1 [Compound 29] | 0.012 µM | 0.017 µM
C[C@H](Nc1nc(Nc2cnn(C3CCN(C)CC3)c2)nc2[nH]ccc12)C1CC1 [Compound 31, (S)-N4-(1-cyclopropylethyl)-N2-(1-(1-methylpiperidin-4-yl)-1H-pyrazol-4-yl)-7H-pyrrolo[2,3-d]pyrimidine-2,4-diamine] | 0.02 µM | 0.023 µM
COCCn1cc(Nc2nc(N[C@@H](C)C3CC3)c3cc[nH]c3n2)cn1 [Compound 32, (S)-N4-(1-cyclopropylethyl)-N2-(1-(2-methoxyethyl)-1H-pyrazol-4-yl)-7H-pyrrolo[2,3-d]pyrimidine-2,4-diamine] | 0.011 µM | 0.011 µM
COCC(C)n1cc(Nc2nc(N[C@@H](C)C3CC3)c3cc[nH]c3n2)cn1 (stereo partly drawn) [Compound 34, N4-((S)-1-cyclopropylethyl)-N2-(1-(1-methoxypropan-2-yl)-1H-pyrazol-4-yl)-7H-pyrrolo[2,3-d]pyrimidine-2,4-diamine] | 0.011 µM | 0.015 µM

SMILES | IC50 [1] | IC50 [2]
CC(C)n1cc(Nc2nc(N[C@@H](C)c3ccccn3)c3cc[nH]c3n2)cn1 [Compound 35, (S)-N2-(1-isopropyl-1H-pyrazol-4-yl)-N4-(1-(pyridin-2-yl)ethyl)-7H-pyrrolo[2,3-d]pyrimidine-2,4-diamine] | 0.066 µM | 0.097 µM
Cc1cc(Nc2nc(N[C@@H](C)C3CC3)c3cc[nH]c3n2)n[nH]1 [Compound 36, (S)-N4-(1-cyclopropylethyl)-N2-(5-methyl-1H-pyrazol-3-yl)-7H-pyrrolo[2,3-d]pyrimidine-2,4-diamine] | 0.038 µM | 0.044 µM
COCCn1cc(Nc2nc(N[C@@H](C)C3CC3)c3cc[nH]c3n2)nn1 [Compound 39, (S)-N4-(1-cyclopropylethyl)-N2-(1-(2-methoxyethyl)-1H-1,2,3-triazol-4-yl)-7H-pyrrolo[2,3-d]pyrimidine-2,4-diamine] |  | 0.058 µM and 0.113 µM and 0.088 µM
C[C@H](Nc1nc(Nc2cnn(CCN(C)C)c2)nc2[nH]ccc12)C1CC1 [Compound 41, (S)-N4-(1-cyclopropylethyl)-N2-(1-(2-(dimethylamino)ethyl)-1H-pyrazol-4-yl)-7H-pyrrolo[2,3-d]pyrimidine-2,4-diamine] | 0.05 µM | 0.065 µM
CC(C)n1cc(Nc2nc(N[C@@H](C)C3CCC3)c3cc[nH]c3n2)cn1 [Compound 42, (S)-N4-(1-cyclobutylethyl)-N2-(1-isopropyl-1H-pyrazol-4-yl)-7H-pyrrolo[2,3-d]pyrimidine-2,4-diamine] | 0.067 µM | 0.078 µM
CNC(=O)C(C)n1cc(Nc2nc(N[C@@H](C)C3CC3)c3cc[nH]c3n2)c(Cl)n1 (stereo partly drawn) [Compound 46, 2-(3-chloro-4-((4-(((S)-1-cyclopropylethyl)amino)-7H-pyrrolo[2,3-d]pyrimidin-2-yl)amino)-1H-pyrazol-1-yl)-N-methylpropanamide] | 0.012 µM | 0.017 µM
CC(C)n1cc(Nc2nc(N(C)[C@@H](C)C3CC3)c3cc[nH]c3n2)cn1 [Compound 48, (S)-N4-(1-cyclopropylethyl)-N2-(1-isopropyl-1H-pyrazol-4-yl)-N4-methyl-7H-pyrrolo[2,3-d]pyrimidine-2,4-diamine] | 0.019 µM | 0.044 µM
COCC(C)n1cc(Nc2nc(N(C)[C@@H](C)C3CC3)c3cc[nH]c3n2)cn1 (stereo partly drawn) [Compound 49, N4-((S)-1-cyclopropylethyl)-N2-(1-(1-methoxypropan-2-yl)-1H-pyrazol-4-yl)-N4-methyl-7H-pyrrolo[2,3-d]pyrimidine-2,4-diamine] | 0.027 µM | 0.069 µM
C[C@H](Nc1nc(Nc2cn([C@H]3CCOC3)nn2)nc2[nH]ccc12)C1CC1 [Compound 51, N4-((S)-1-cyclopropylethyl)-N2-(1-((S)-tetrahydrofuran-3-yl)-1H-1,2,3-triazol-4-yl)-7H-pyrrolo[2,3-d]pyrimidine-2,4-diamine] | 0.066 µM | 0.102 µM
CC(O)Cn1cc(Nc2nc(N[C@@H](C)C3CC3)c3cc[nH]c3n2)nn1 (stereo partly drawn) [Compound 54, 1-(4-((4-(((S)-1-cyclopropylethyl)amino)-7H-pyrrolo[2,3-d]pyrimidin-2-yl)amino)-1H-1,2,3-triazol-1-yl)propan-2-ol] | 0.021 µM | 0.027 µM
C[C@H](Nc1nc(Nc2cn([C@H](C)CO)nn2)nc2[nH]ccc12)C1CC1 [Compound 55, (R)-2-(4-((4-(((S)-1-cyclopropylethyl)amino)-7H-pyrrolo[2,3-d]pyrimidin-2-yl)amino)-1H-1,2,3-triazol-1-yl)propan-1-ol] | 0.009 µM and 0.019 µM | 0.013 µM and 0.032 µM
C[C@H](Nc1nc(Nc2cn(C3COC3)nn2)nc2[nH]ccc12)C1CC1 [Compound 56, (S)-N4-(1-cyclopropylethyl)-N2-(1-(oxetan-3-yl)-1H-1,2,3-triazol-4-yl)-7H-pyrrolo[2,3-d]pyrimidine-2,4-diamine] | 0.073 µM | 0.115 µM
C[C@H](Nc1nc(Nc2cn([C@@H](C)CO)nn2)nc2[nH]ccc12)C1CC1 [Compound 58, (S)-2-(4-((4-(((S)-1-cyclopropylethyl)amino)-7H-pyrrolo[2,3-d]pyrimidin-2-yl)amino)-1H-1,2,3-triazol-1-yl)propan-1-ol] | 0.072 µM | 0.101 µM
CC(C)n1ccc(Nc2nc(N[C@@H](C)C3CC3)c3nc[nH]c3n2)n1 [Compound 59, (S)-N6-(1-cyclopropylethyl)-N2-(1-isopropyl-1H-pyrazol-3-yl)-9H-purine-2,6-diamine] | 0.051 µM | 0.115 µM
Cc1cc(Nc2nc(N[C@@H](C)C3CC3)c3nc[nH]c3n2)nn1C(C)C [Compound 60, (S)-N6-(1-cyclopropylethyl)-N2-(1-isopropyl-5-methyl-1H-pyrazol-3-yl)-9H-purine-2,6-diamine] | 0.032 µM | 0.065 µM
